Patent publication US11446298B2, “Pyrimidine derivatives” (Idorsia Pharmaceuticals Ltd, priority 2017, dated 2022)

Key:
Assay type in all cases: cell-based
EP4 = target: T1, EP4 (Homo sapiens, UniProt P35408); test: hEP4 cAMP Assay (BT549 breast cancer cells, HTRF cAMP, PGE2 6 nM); conditions: antagonistic activity, PGE2 6 nM (EC80)
T1 construct: BT549 breast cancer cells, express high endogenous EP4 levels and very low EP2 levels; host or cells: BT549 breast cancer cells
Experimental: (§1) The antagonistic activities of the compounds of formula (I) on the EP2 and EP4 receptors are also determined in accordance with the following experimental method.
(§2) Human tumor cell lines expressing endogenously either EP4 or EP2 are used and cAMP accumulation in cells upon PGE2 stimulation is monitored. SF295 glioblastoma cells express high endogenous EP2 and no EP4, whereas BT549 breast cancer cells, express high endogenous EP4 levels and very low EP2 levels.
(§3) As a detection method for cAMP the HTRF (homogeneous time resolved fluorescence) Cisbio kit (HTRF cAMP dynamic 2 kit 20′000 tests Cisbio Cat. #62AM4PEC) was used, which is based on a competitive immunoassay using a Cryptate-labeled anti-cAMP antibody and d2-labeled cAMP. Native cAMP produced by cells or unlabeled cAMP (for the standard curve) compete with exogenously added d2-labeled cAMP (acceptor) for binding to monoclonal anti-cAMP-Eu3+Cryptate (donor). A FRET signal (Fluorescence Resonance Energy Transfer) is obtained only if the labeled anti-cAMP antibody binds the d2 labelled cAMP, thus the specific signal (i.e. energy transfer) is inversely proportional to the concentration of cAMP in the standard or sample.
(§4) The BT549 cells (NCI/No. 0507282) are detached from culture dishes with a cell dissociation buffer (Invitrogen, 13151-014), and collected in growing medium (GM: RPMI1640 (Invitrogen 21875)/10% FCS, 1% Penicilin/streptomycin). Cells are counted washed and resuspended in assay buffer (AB; HBSS, 20 mM HEPES, 0.2% BSA; 2 mM IBMX). 4′000 cells in 5 μL of AB are seeded per well of a small volume 384 well plate (black with flat bottom, Greiner 784076).
(§5) Stock solutions of test compounds are made at a concentration of 10 mM in DMSO, and serially diluted in DMSO to concentrations required for inhibition dose response curves (tested concentration range 30 μM-0.4 nM; 30 μM-0.015 nM or 1 μM-0.01 nM).
PGE2 (Cayman 14010, stock solution: 6 uM in DMSO) is used as agonist at 6 nM final concentration, corresponding to EC80.
(§6) 2.5 μL of diluted compounds are transferred into the assay plate. Plate is pre-incubated 45 minutes at room temperature. Subsequently, 2.5 μL of PGE2 (final conc. 6 nM) are transferred into the assay plate. Plate is incubated 30 minutes at room temperature. 5 μL of each donor (anti-cAMP cryptate) and acceptor (cAMP-d2) are added and the plate is incubated another hour at room temperature in the dark and then read using a BMG LABTECH PHERAstar reader (Excitation: 337 nm, Emission: 620 and 665 nm).
(§7) The obtained Delta F (fluorescence) values (665 nm/620 nM) are converted into % cAMP values using the measurements of the cAMP calibrator provided in the kit. For each compound concentration the percentage of cAMP compared to DMSO control value as average ±STDEV (each concentration is measured in duplicate) is calculated.
(§8) IC50 values and curves are generated with XLfit software (IDBS) using Dose-Response One Site model 203. When compounds were measured multiple times, mean values are given.

EP2 = target: T2, EP2 (Homo sapiens, UniProt P43116); test: hEP2 cAMP Assay (SF295 glioblastoma cells, HTRF cAMP, PGE2 75 nM); conditions: antagonistic activity, PGE2 75 nM (EC80)
T2 construct: SF295 glioblastoma cells express high endogenous EP2 and no EP4; host or cells: SF295 glioblastoma cells
Experimental: as §1, §2, §3
as §4, with “SF295” for “BT549”, “0503170)” for “0507282)”, “RPM11640” for “RPMI1640”
as §5
PGE2 (Cayman 14010, stock solution: 75 μM in DMSO) is used as agonist at 75 nM final concentration, corresponding to EC80.
as §6, with “conc. 75” for “conc. 6”, “temperature. Five” for “temperature. 5”
as §7, §8

PTGER2 (EP2) = target: T3, PTGER2 (EP2) (Homo sapiens, UniProt P43116); test: hEP2 b-Arrestin Assay (PathHunter HEK 293 PTGER2 b-arrestin cells, PGE2 5 μM); conditions: antagonistic activity, beta-arrestin assay, HEK 293 PTGER2 cells, PGE2 5 μM (EC80); read-out: hEP2 b-arr IC50
T3 construct: host or cells: HEK 293 (PathHunter, stably transfected)
Experimental: as §1
The assay is using the PathHunter™ HEK 293 PTGER2 and PTGER4 b-arrestin cell lines from DiscoverX. The system is based on the Enzyme Fragment Complementation Technology. Two complementing fragments of the b-galactosidase enzyme are expressed within stably transfected cells. The larger portion of b-gal, termed EA for Enzyme Acceptor, is fused to the C-terminus of b-arrestin 2. The smaller fragment, termed ProLink™ tag, is fused to PTGER2 (EP2) or PTRGER4 (EP4) at the C-terminus. Upon activation, b-arrestin is recruited which forces the interaction of ProLink and EA, allowing complementation of the two fragments of b-gal and the formation of a functional enzyme which is capable of hydrolysing the substrate and generating a chemiluminescent signal.
The HEK 293 PTGER2 b-arrestin cells (DiscoverX 93-021-4C1) are detached from culture dishes with a cell dissociation buffer (Invitrogen, 13151-014), and collected in growing medium (GM: DMEM+Glutamax-I (Invitrogen 32430)/10% FCS, 1% Penicilin/streptomycin). 5000 cells per well of a 384 well plate (white with white bottom Greiner 781080) are seeded in 20 μl per well of GM. Plate is incubated at 37° C., 5% CO2 for 24 hours.
Stock solutions of test compounds are made at a concentration of 10 mM in DMSO, and serially diluted in DMSO to concentrations required for inhibition dose response curves (tested concentration range 10 μM-2 nM or 1 μM-0.2 nM).
PGE2 (Cayman 14010, stock solution: 10 mM in DMSO) is used as agonist at 5 μM final concentration, corresponding to EC80.
Five microliters of diluted compounds are transferred into the assay plate. Plate is pre-incubated 15 minutes at 37° C. Then five microliters of PGE2 (final conc. 5 μM) are transferred into the assay plate. Plate is incubated 120 minutes at 37° C.
PathHunter Glo Detection Kit components are thawed and mix according to manufacturer's instructions: 1 part Galacton Star Substrate with 5 parts Emerald II™ Solution, and 19 parts of PathHunter Cell Assay Buffer, respectively. Twelve μl of reagent are transferred to the assay plate and incubate for 1 hour at room temperature in the dark. Luminescence counts are read on a BMG Fluostar Optima reader according to manufacturer's instructions.
For each compound concentration calculate of the percentage of activity compared to DMSO control value as average ±STDEV. (each concentration is measured in duplicate)
as §8

T2 sequence (P43116 whole entry): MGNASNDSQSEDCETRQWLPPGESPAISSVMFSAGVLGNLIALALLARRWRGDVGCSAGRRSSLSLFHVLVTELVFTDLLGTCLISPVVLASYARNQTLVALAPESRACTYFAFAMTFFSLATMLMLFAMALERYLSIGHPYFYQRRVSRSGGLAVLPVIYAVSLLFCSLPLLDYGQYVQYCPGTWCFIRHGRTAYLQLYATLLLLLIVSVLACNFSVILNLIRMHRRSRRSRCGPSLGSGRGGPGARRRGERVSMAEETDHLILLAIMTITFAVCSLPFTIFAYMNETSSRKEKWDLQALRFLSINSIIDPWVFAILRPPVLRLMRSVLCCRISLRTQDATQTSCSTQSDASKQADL
T3 sequence (P43116 whole entry): as above
T1 sequence (P35408 whole entry): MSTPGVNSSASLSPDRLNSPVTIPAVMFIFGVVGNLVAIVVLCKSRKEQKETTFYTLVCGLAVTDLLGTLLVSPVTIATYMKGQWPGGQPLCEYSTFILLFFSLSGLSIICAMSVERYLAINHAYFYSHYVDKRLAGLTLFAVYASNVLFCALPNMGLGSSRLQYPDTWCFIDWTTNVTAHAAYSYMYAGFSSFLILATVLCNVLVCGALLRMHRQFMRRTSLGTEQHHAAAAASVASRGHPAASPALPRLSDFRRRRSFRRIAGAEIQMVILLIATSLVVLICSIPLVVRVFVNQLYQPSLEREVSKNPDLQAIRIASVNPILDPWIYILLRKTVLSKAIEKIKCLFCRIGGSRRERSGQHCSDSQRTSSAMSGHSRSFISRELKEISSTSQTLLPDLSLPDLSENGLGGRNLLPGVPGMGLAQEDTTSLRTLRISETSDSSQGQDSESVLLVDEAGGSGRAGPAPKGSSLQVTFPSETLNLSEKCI

Row | Structure (SMILES) | IC50 (EP4) [nM] | IC50 (EP2) [nM] | IC50 (PTGER2 (EP2)) [nM]
1 | O=C(O)c1ccc(-c2cc(NCCc3ccc(Cl)c4ccccc34)ncn2)cc1OC1CCC1 [Example 61, 4-{6-[2-(4-Chloro-naphthalen-1-yl)-ethylamino]-pyrimidin-4-yl}-2-cyclobutoxy-benzoic acid] | 745 | 183 | 113
2 | CCOc1cc(-c2cc(NCCc3c(OC)ccc4ncccc34)ncn2)ccc1NCC(=O)O [Example 88, (2-Ethoxy-4-{6-[2-(6-methoxy-quinolin-5-yl)-ethylamino]-pyrimidin-4-yl}-phenylamino)-acetic acid] | 645 | 155 | 94
3 | O=C(O)c1ccc(-c2cc(NCCc3cccc4ccsc34)ncn2)cc1OC1CCC1 [Example 102, 4-[6-(2-Benzo[b]thiophen-7-yl-ethylamino)-pyrimidin-4-yl]-2-cyclobutoxy-benzoic acid] | 263 | 224 | 145
4 | CCOc1cc(-c2cc(NCCc3c(OC)ccc4ncccc34)ncn2)ccc1O [Example 90, 2-Ethoxy-4-{6-[2-(6-methoxy-quinolin-5-yl)-ethylamino]-pyrimidin-4-yl}-phenol] | 351 | 58 | 36
5 | COc1ccc2ncccc2c1CCNc1cc(-c2ccnc(N3CCCCC3)c2)ncn1 [Example 112, [2-(6-Methoxy-quinolin-5-yl)-ethyl]-[6-(3,4,5,6-tetrahydro-2H-[1,2′]bipyridinyl-4′-yl)-pyrimidin-4-yl]amine] | 685 | 210 | 190
6 | COc1cc(-c2cc(NCCc3c(OC)ccc4ncccc34)ncn2)sc1C1(O)COC1 [Example 89, 3-(3-Methoxy-5-{6-[2-(6-methoxy-quinolin-5-yl)-ethylamino]-pyrimidin-4-yl}-thiophen-2-yl)-oxetan-3-ol] | 878 | 197 | 178
7 | COc1ccc2ncccc2c1CCNc1cc(-c2ccc(-c3c(O)c(=O)c3=O)cc2)ncn1 [Example 91, 3-Hydroxy-4-(4-{6-[2-(6-methoxy-quinolin-5-yl)-ethylamino]-pyrimidin-4-yl}-phenyl)-cyclobut-3-ene-1,2-dione] | 818 | 228 | 146

The remaining lines, values ahead:

Row | IC50 (EP4) [nM] | IC50 (EP2) [nM] | IC50 (PTGER2 (EP2)) [nM] | Structure (SMILES)
8 | 909 | 67 | 22 | CCOc1cc(-c2cc(NCCc3c(Br)ccc4ccccc34)ncn2)ccc1C(=O)O [Example 7, 4-{6-[2-(2-Bromo-naphthalen-1-yl)-ethylamino]-pyrimidin-4-yl}-2-ethoxy-benzoic acid]
9 | 405 | 119 | 66 | CCOc1cc(-c2cc(NCCc3c(OC)ccc4ncccc34)ncn2)sc1C(=N)NO [Example 146, 3-Ethoxy-N-hydroxy-5-{6-[2-(6-methoxy-quinolin-5-yl)-ethylamino]-pyrimidin-4-yl}-thiophene-2-carboxamidine]
10 | 368 | 163 | 78 | CCOc1cc(-c2cc(NCCc3c(C(F)F)ccc4ccccc34)ncn2)sc1C(=O)O [Example 70, 5-{6-[2-(2-Difluoromethyl-naphthalen-1-yl)-ethylamino]-pyrimidin-4-yl}-3-ethoxy-thiophene-2-carboxylic acid]
11 | 300 | 239 | 99 | CCOc1cc(-c2cc(NCCc3ccc(Cl)c4ccccc34)ncn2)ccc1OCC(=O)O [Example 63, (4-{6-[2-(4-Chloro-naphthalen-1-yl)-ethylamino]-pyrimidin-4-yl}-2-ethoxy-phenoxy)-acetic acid]
12 | 416 | 20 | 9 | COc1ccc2ccccc2c1CCNc1cc(-c2cc3ccc(C(=O)O)cc3[nH]2)ncn1 [Example 127, 2-{6-[2-(2-Methoxy-naphthalen-1-yl)-ethylamino]-pyrimidin-4-yl}-1H-indole-6-carboxylic acid]
13 | 426 | 180 | 66 | CCOc1cc(-c2cc(NCCc3c(F)ccc4ccccc34)ncn2)ccc1OCC(=O)O [Example 96, (2-Ethoxy-4-{6-[2-(2-fluoro-naphthalen-1-yl)-ethylamino]-pyrimidin-4-yl}-phenoxy)-acetic acid]
14 | 654 | 123 | 45 | CCOc1cc(-c2cc(NCCc3c(OC)ccc4ccccc34)ncn2)ccc1OCC(=O)O [Example 47, (2-Ethoxy-4-{6-[2-(2-methoxy-naphthalen-1-yl)-ethylamino]-pyrimidin-4-yl}-phenoxy)-acetic acid]
15 | 596 | 53 | 126 | CCOc1cc(-c2cc(NCCc3cccc4cc(C)[nH]c34)ncn2)sc1C(=O)O [Example 37, 3-Ethoxy-5-{6-[2-(2-methyl-1H-indol-7-yl)-ethylamino]-pyrimidin-4-yl}-thiophene-2-carboxylic acid]
16 | 292 | 11 | 17 | CCOc1cc(-c2cc(NCCc3c(OC)ccc4ccccc34)ncn2)ccc1C(=O)O [Example 3, 2-Ethoxy-4-{6-[2-(2-methoxy-naphthalen-1-yl)-ethylamino]-pyrimidin-4-yl}-benzoic acid]
